Test results: article PMC12136037, “Type II kinase inhibitors that target Parkinson’s disease–associated LRRK2” (Science Advances, 2025)

How the values were obtained:
Assay in all cases: DSF 100 kinase selectivity screen;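 further: compound tested at 20 µM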
Assay type in all cases: binding
[1] = target: T1, ~100 representative kinases (Homo sapiens, UniProt P45983); details: protein MAPK8; average of three replicates
T1 construct: Recombinant protein kinase domains with a concentration of 2 μM
In short: (§1)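 Each kinase domain, at 2 μM, is mixed with 20 μM test compound and SYPRO Orange in Hepes (20 mM, pH 7.5) with 500 mM NaCl. Temperature is then raised at 3°C/min and fluorescence-monitored unfolding yields the melting temperature change, ΔTm in degrees Celsius.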

[2] = target: T2, ~100 representative kinases (Homo sapiens, UniProt Q96PY6); details: protein NEK1; average of three replicates
T2 construct: Recombinant protein kinase domains with a concentration of 2 μM
T2 sequence (Q96PY6 1-1258): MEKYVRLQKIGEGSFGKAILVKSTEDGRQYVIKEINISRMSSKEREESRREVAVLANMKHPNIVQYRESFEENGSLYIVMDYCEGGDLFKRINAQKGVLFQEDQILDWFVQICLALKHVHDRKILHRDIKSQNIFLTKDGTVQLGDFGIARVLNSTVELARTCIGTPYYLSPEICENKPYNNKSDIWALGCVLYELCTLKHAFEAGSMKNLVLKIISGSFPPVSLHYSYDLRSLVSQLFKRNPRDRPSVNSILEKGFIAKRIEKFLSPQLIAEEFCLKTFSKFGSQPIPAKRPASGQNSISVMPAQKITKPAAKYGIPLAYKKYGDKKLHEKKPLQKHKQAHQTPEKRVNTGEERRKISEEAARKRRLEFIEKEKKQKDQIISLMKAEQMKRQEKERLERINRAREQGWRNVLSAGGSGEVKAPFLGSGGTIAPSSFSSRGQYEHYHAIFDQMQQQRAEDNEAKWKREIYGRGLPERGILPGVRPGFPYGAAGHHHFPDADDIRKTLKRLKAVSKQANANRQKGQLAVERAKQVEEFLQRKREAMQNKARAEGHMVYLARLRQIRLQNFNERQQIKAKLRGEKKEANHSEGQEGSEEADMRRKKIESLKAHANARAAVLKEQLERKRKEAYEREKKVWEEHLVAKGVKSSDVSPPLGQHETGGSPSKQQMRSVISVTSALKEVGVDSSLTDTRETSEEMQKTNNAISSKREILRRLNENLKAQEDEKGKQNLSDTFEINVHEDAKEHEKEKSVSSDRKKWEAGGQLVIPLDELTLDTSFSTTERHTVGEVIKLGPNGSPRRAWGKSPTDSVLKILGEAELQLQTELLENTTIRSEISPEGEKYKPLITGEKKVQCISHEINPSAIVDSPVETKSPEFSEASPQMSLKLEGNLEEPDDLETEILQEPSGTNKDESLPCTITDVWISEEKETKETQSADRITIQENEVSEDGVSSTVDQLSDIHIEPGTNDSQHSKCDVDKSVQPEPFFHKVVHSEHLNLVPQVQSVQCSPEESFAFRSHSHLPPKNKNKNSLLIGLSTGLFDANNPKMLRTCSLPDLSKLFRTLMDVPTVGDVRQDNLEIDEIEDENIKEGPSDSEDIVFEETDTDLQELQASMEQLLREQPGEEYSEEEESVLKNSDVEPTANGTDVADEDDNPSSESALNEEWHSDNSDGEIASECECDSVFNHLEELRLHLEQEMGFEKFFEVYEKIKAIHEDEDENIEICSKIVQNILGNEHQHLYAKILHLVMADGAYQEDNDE
In short: as §1

[3] = target: T3, ~100 representative kinases (Homo sapiens, UniProt P54762); details: Protein EPHB1; average of three replicates
T3 construct: Recombinant protein kinase domains with a concentration of 2 μM
T3 sequence (P54762 18-984): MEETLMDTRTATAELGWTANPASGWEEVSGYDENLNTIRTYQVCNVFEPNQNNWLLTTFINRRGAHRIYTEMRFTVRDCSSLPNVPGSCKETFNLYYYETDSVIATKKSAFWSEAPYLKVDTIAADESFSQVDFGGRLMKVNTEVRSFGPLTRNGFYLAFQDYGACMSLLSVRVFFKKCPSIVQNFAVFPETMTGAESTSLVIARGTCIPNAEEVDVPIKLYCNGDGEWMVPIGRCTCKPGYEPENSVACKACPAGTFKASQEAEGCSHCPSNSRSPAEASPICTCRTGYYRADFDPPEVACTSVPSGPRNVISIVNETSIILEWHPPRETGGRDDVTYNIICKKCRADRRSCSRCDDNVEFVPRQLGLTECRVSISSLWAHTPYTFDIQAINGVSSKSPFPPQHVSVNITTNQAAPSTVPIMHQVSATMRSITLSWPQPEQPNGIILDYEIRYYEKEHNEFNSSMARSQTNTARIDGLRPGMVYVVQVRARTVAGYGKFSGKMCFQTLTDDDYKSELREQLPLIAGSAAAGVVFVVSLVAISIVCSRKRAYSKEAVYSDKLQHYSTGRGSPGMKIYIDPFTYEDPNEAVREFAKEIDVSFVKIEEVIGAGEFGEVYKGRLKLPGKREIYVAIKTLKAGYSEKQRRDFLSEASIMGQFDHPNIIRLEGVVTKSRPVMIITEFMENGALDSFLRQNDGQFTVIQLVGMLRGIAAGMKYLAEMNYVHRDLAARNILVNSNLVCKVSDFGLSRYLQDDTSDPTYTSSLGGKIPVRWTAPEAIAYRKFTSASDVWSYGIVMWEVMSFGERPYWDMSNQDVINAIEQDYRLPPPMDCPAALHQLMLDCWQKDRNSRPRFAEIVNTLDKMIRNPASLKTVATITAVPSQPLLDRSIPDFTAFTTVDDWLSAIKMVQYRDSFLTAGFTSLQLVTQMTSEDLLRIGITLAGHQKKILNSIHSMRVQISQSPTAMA
In short: as §1

[4] = target: T4, ~100 representative kinases (Homo sapiens, UniProt P49759); details: Protein CLK1; average of three replicates
T4 construct: Recombinant protein kinase domains with a concentration of 2 μM
T4 sequence (P49759 whole entry, the tested form may be a part): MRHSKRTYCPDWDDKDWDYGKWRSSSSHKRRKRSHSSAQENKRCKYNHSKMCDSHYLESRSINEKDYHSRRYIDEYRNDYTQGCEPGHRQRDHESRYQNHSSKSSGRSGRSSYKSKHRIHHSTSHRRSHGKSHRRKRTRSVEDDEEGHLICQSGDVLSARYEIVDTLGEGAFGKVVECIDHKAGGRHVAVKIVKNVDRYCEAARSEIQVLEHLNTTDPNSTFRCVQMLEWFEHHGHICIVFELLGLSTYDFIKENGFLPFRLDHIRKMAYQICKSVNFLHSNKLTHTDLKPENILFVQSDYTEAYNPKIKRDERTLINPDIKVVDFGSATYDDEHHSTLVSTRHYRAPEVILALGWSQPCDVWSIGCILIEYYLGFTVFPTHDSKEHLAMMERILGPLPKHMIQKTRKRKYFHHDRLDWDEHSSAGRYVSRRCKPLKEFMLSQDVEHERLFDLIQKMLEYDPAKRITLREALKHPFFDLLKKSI
In short: as §1

[5] = target: T5, ~100 representative kinases (Homo sapiens, UniProt O96017); details: Protein CHEK2; average of three replicates
T5 construct: Recombinant protein kinase domains with a concentration of 2 μM
T5 sequence (O96017 whole entry, the tested form may be a part): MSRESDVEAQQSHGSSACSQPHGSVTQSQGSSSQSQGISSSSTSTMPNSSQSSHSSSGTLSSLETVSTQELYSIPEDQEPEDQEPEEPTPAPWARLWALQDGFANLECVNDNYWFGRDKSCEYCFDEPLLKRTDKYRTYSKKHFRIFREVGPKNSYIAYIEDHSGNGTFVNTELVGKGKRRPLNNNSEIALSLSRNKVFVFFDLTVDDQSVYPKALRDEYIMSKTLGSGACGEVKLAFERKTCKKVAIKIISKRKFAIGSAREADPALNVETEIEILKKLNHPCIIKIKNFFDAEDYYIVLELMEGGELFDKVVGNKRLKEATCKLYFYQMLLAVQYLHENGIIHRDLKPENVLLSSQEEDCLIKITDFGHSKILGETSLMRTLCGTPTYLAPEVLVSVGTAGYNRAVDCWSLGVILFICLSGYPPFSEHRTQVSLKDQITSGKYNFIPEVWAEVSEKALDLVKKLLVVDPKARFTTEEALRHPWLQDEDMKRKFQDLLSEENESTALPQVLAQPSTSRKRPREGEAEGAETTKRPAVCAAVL
In short: as §1

[6] = target: T6, ~100 representative kinases (Homo sapiens, UniProt O94804); details: Protein STK10; DSF; average of three replicates
T6 construct: Recombinant protein kinase domains with a concentration of 2 μM
T6 sequence (O94804 whole entry, the tested form may be a part): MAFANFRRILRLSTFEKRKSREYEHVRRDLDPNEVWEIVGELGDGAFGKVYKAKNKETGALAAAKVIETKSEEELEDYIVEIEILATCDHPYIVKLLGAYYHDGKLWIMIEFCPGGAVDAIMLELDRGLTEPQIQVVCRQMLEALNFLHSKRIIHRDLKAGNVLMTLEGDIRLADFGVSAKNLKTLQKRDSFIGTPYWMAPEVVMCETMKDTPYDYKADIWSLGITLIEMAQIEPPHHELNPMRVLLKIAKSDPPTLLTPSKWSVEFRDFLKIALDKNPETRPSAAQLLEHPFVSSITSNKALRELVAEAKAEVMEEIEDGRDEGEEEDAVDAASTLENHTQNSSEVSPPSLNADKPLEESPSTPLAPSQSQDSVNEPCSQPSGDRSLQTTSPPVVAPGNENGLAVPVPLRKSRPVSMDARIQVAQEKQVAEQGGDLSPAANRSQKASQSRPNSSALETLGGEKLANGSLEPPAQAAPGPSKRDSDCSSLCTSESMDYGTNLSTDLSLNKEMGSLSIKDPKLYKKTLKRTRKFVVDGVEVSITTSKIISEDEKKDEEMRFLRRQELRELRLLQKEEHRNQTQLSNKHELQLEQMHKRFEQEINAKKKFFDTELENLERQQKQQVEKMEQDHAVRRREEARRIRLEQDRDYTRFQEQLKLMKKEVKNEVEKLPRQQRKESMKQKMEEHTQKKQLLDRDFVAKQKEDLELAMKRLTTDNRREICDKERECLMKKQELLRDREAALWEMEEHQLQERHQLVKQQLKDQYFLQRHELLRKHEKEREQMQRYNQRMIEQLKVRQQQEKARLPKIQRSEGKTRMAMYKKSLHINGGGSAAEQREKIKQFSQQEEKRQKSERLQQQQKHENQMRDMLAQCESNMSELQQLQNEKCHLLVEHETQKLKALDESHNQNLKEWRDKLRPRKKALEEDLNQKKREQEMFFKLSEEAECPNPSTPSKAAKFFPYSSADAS
In short: as §1

T1 sequence (P45983 whole entry, the tested form may be a part): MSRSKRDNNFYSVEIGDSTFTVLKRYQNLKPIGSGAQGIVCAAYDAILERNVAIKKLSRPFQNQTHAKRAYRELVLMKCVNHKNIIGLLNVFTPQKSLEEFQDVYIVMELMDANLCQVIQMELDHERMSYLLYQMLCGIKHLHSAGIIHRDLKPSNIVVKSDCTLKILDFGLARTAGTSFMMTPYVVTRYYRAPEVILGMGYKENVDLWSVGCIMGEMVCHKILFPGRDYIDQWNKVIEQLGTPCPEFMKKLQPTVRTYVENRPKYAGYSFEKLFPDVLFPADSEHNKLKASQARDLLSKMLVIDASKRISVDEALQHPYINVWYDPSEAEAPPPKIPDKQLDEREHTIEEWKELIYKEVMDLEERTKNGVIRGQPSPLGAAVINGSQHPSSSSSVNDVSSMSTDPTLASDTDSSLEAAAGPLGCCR

Compound `O=C(Nc1cccc(-c2c[nH]c3ncnc(N4CCOCC4)c23)c1)C1(C(=O)Nc2cc(Br)c(F)cc2F)CC1` [Compound 25] has a dTm [1] of 0.77 K, a dTm [2] of -6.30 K and a dTm [3] of -4.24 K. For the same compound, the dTm [4] was 4.99 K, the dTm [5] was 2.02 K and the dTm [6] was 11.10 K.

In the case of `O=C(Nc1cccc(-c2c[nH]c3ncnc(N4CCOCC4)c23)c1)C1(C(=O)Nc2ccc(F)c(Br)c2F)CC1` [Compound 26], the dTm [1] is reported as 2.06 K, the dTm [2] is reported as -0.27 K and the dTm [3] is reported as -6.10 K. The dTm [4] was 6.34 K, the dTm [5] was 2.81 K and the dTm [6] was 12.57 K.

Compound `O=C(Nc1cc(F)cc(Br)c1)C1(C(=O)Nc2cccc(-c3c[nH]c4ncnc(N5CCOCC5)c34)c2)CC1` [Compound 27] has a dTm [1] of 1.19 K, a dTm [2] of -1.82 K and a dTm [3] of -2.93 K. For the same compound, the dTm [4] was 7.78 K, the dTm [5] was 1.74 K and the dTm [6] was 10.11 K.

For `CC(C)(C)c1cc(NC(=O)Nc2cccc(-c3c[nH]c4ncnc(N5CCOCC5)c34)c2)n(-c2ccc3ncccc3c2)n1` [Compound 28], the dTm [1] was 3.58 K, the dTm [2] was 0.13 K and the dTm [3] was 11.35 K. For the same compound, the dTm [4] was 19.59 K, the dTm [5] was 10.72 K and the dTm [6] was 20.14 K.

Compound `Cc1ccc(-n2nc(C(C)(C)C)cc2NC(=O)Nc2cccc(-c3c[nH]c4ncnc(N5CCOCC5)c34)c2)cc1` [Compound 29] has a dTm [1] of 4.13 K, a dTm [2] of -1.22 K and a dTm [3] of 5.08 K. It also gave a dTm [4] of 17.42 K, a dTm [5] of 12.51 K and a dTm [6] of 20.37 K.

Work on `Cc1ccc(-n2nc(C(C)(C)C)cc2NC(=O)Nc2cccc(-c3c[nH]c4nc(Cl)nc(N5CCOCC5)c34)c2)cc1` [Compound 30] yielded a dTm [1] of 1.42 K, a dTm [2] of -0.84 K and a dTm [3] of -0.80 K. For the same compound, the dTm [4] was 11.59 K, the dTm [5] was 4.41 K and the dTm [6] was 13.38 K.

For `CC(=O)N1CCN(c2nc(Cl)nc3[nH]cc(-c4cccc(NC(=O)Nc5cc(C(C)(C)C)nn5-c5ccc(C)cc5)c4)c23)CC1` [Compound 31], the dTm [1] was 0.84 K, the dTm [2] was -1.20 K and the dTm [3] was 0.39 K. It also gave a dTm [4] of 10.57 K, a dTm [5] of 5.59 K and a dTm [6] of 13.28 K.

For `CCSc1nc(NC)c2c(-c3cccc(NC(=O)Nc4cc(C(C)(C)C)nn4-c4ccc(C)cc4)c3)c[nH]c2n1` [Compound 32], the dTm [1] was 4.04 K, the dTm [2] was -1.34 K and the dTm [3] was 0.21 K. The dTm [4] was 5.52 K, the dTm [5] was 3.19 K and the dTm [6] was 8.61 K.

Work on `COc1cc(C(=O)N2CCOCC2)c(F)cc1Nc1nc(N(C)C)c2c(Cl)c[nH]c2n1` [Compound 36] yielded a dTm [1] of 5.54 K, a dTm [2] of 0.22 K and a dTm [3] of -0.27 K. For the same compound, the dTm [4] was 8.96 K, the dTm [5] was 13.85 K and the dTm [6] was -1.96 K.

With `COc1cc(S(C)(=O)=O)ccc1Nc1nc(N(C)C)c2c(Cl)c[nH]c2n1` [Compound 37] the dTm [1] was 3.54 K, the dTm [2] was 0.73 K and the dTm [3] was -0.51 K. It also gave a dTm [4] of 5.62 K, a dTm [5] of 7.39 K and a dTm [6] of -1.61 K.

With `COc1cc2c(Oc3ccc(NC(=O)C4(C(=O)Nc5ccc(F)cc5)CC4)cc3F)ccnc2cc1OCCCN1CCOCC1` [Foretinib, reference compound] the dTm [1] was 2.68 K, the dTm [2] was 0.60 K and the dTm [3] was 12.70 K. It also gave a dTm [4] of 6.72 K, a dTm [5] of 18.83 K and a dTm [6] of 16.81 K.

`CCNc1nc(Nc2cc(F)c(C(=O)N3CCOCC3)cc2OC)ncc1C(F)(F)F` [GNE-7915] showed a dTm [1] of 0.60 K, a dTm [2] of 0.68 K and a dTm [3] of 0.07 K. The dTm [4] was 5.28 K, the dTm [5] was 0.72 K and the dTm [6] was -0.11 K.

`C[C@@H]1CN(c2cc(-c3n[nH]c4ccc(OC5(C)CC5)cc34)ncn2)C[C@H](C)O1` [MLi2] showed a dTm [1] of 0.56 K, a dTm [2] of 0.27 K and a dTm [3] of -0.37 K. For the same compound, the dTm [4] was 3.00 K, the dTm [5] was 3.06 K and the dTm [6] was -0.79 K.

In the case of `Cn1cc(-c2c[nH]c3ncnc(N4CCOCC4)c23)cc1C#N` [PFE-360], the dTm [1] is reported as 0.89 K, the dTm [2] is reported as 0.39 K and the dTm [3] is reported as -0.08 K. It also gave a dTm [4] of 7.59 K, a dTm [5] of 3.22 K and a dTm [6] of 7.58 K.

For `CNC(=O)c1cc(Oc2ccc(NC(=O)Nc3cc(C(C)(C)C)nn3-c3ccc4ncccc4c3)c(F)c2)ccn1` [Rebastinib, reference compound], the dTm [1] was 1.99 K, the dTm [2] was 2.10 K and the dTm [3] was 4.28 K. The dTm [4] was 15.99 K, the dTm [5] was 10.49 K and the dTm [6] was 16.27 K.
